Structures can show the parent of a compound that is named as a salt.
How the values were obtained:
TAK1-TAB1 fusion protein = biological target: T1, TAK1-TAB1 fusion protein (Homo sapiens, UniProt O43318); test: TAK1 biochemical assay (AlphaScreen, GST-MAP2K7 substrate); settings: TAK1-TAB1 fusion protein, GST-MAP2K7 substrate; read-out: mean TAK1 IC50 (Col. A)
T1 construct: purchased Carna
T1 sequence (O43318 with tags, fused parts or gaps limits assumed): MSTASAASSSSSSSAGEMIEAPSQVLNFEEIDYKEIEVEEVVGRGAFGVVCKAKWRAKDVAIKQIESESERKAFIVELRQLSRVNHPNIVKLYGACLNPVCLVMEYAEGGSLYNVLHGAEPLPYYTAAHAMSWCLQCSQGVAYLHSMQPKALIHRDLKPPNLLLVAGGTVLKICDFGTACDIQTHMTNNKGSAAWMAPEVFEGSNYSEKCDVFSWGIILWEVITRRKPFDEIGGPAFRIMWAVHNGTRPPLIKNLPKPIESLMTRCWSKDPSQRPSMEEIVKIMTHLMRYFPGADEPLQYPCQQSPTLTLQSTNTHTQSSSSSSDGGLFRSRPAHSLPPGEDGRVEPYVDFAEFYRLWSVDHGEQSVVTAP

pJNK in HCT-116 cells = test: Phospho-JNK (Thr183/Tyr185) Meso Scale ELISA assay, TNFα-stimulated HCT-116 cells; assay type: cell-based; settings: Homo sapiens, read-out: mean HCT-116 pJNK ELISA IC50 (Col. B)
Summary of the method: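 Meso Scale ELISA read of phospho-JNK (Thr183/Tyr185) in lysed HCT-116 cells. Cells were serum-reduced to 1% FCS for 2 hours, exposed to test drug for 4 hrs at 37° C, then given 10 ng/mL TNFα (final) for 10 minutes before lysis.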

p-p38 in HCT-116 cells = test: Phospho-p38 Meso Scale ELISA assay, TNFα-stimulated HCT-116 cells; assay type: cell-based; settings: Homo sapiens, read-out: mean HCT-116 p-p38 ELISA IC50 (Col. C)
Method: Detailed below are ELISA assays for pJNK and p38, and a TAK1 biochemical assay. […] In Table 1, Col.
• 1. Plate HCT-116 cells at 25,000 per well in 100 uL in 96 well clear dishes in normal growth medium. Day 2: • 1. Aspirate medium and replace with 90 μl reduced serum growth medium (1% FCS), incubate for 2 hours at 37° C. • 2. Make drugs at 10× in reduced serum medium and add 10 uL per well. • 3. Incubate at 37° C. for 4 hrs. • 4. Bring capture plates to room temperature. • 5. Block with 150 μl Blocking Solution (provided with kit) (600 mg Blocker A into 20 mL 1× Wash Buffer per plate) at room temperature with shaking. • 6. Wash plates 4× with 200 μl 1× wash buffer (10× provided with kit) before transferring lysates. • 7. Dilute TNFα to […] in reduced serum medium (this makes a 10× working stock). • 8. Add 10 μl TNFα to all wells except negative control wells, final concentration is 10 ng/mL. • 9. Incubate at 37° C. for 10 minutes. • 10. Remove medium by flicking into sink • 11. Wash cells with 100 uL ice cold PBS. • 12. Remove PBS by flicking into sink and patting on paper towels. • 13. Lyse cells in 50 μl ice cold 1× Complete Lysis Buffer plus Phosphatase and Protease inhibitors (all provided with kit) (10 mL Tris Lysis Buffer+200 μl Protease inhibitor solution+100 μl Phosphatase inhibitor I+100 μl Phosphatase inhibitor II). • 14. Incubate with shaking at 4° C. for 30 minutes. • 15. Transfer 45 μl to capture plate, cover with adhesive cover, and incubate at 4° C. over night with shaking. • Day 3: • 1. Wash plates 4× with 200 μl 1× wash buffer (10× provided with kit). • 2. […] Incubate at room temperature with shaking for 1 hour. • 4. Wash 4× with 200 μl 1× Wash Buffer. • 5. […] Read on Sector Imager. Phospho-p38 Meso Scale ELISA Assay Day 1: • 1. Plate HCT-116 cells at 25,000 per well in 100 uL in 96 well clear dishes in normal growth medium. zday 2: • 1. Aspirate medium and replace with 90 μl reduced serum growth medium (1% FCS), incubate for 2 hours at 37° C. • 2. Make drugs at 10× in reduced serum medium and add 10 uL per well. • 3. Incubate at 37° C. for 4 hrs. • 4. Bring capture plates to room temperature. • 5. Block with 150 μl Blocking Solution (provided with kit) (600 mg Blocker A into 20 mL 1× Wash Buffer per plate) at room temperature with shaking. • 6. Wash plates 4× with 200 μl 1× wash buffer (10× provided with kit) before transferring lysates. • 7. Dilute TNFα to […] in reduced serum medium (this makes a 10× working stock). • 8. Add 10 μl TNFα to all wells except negative control wells, final concentration is 10 ng/mL. • 9. Incubate at 37° C. for 10 minutes. • 10. Remove medium by flicking into sink • 11. Wash cells with 100 uL ice cold PBS. • 12. Remove PBS by flicking into sink and patting on paper towels. • 13. Lyse cells in 50 μl ice cold 1× Complete Lysis Buffer plus phosphatase and protease inhibitors (all provided with kit) (10 mL Tris Lysis Buffer+200 μl Protease inhibitor solution+100 μl Phosphatase inhibitor I+100 μl Phosphatase inhibitor II). • 14. Incubate with shaking at 4° C. for 30 minutes. • 15. Dilute lysates before transferring to capture plate with 100 μl Complete p38 Lysate • Dilution Buffer (provided with kit) (10 mL of Diluent 20±200 μl Protease inhibitor solution+100 μl Phosphatase inhibitor I+100 μl Phosphatase inhibitor II). • 16. Transfer 50 μl of diluted lysates to capture plate, cover with adhesive cover, and incubate at 4° C. over night with shaking. Day 3: • 1. Wash plates 4× with 200 μl 1× wash buffer (10× provided with kit). • 2. […] Incubate at room temperature with shaking for 1 hour. • 4. Wash 4× with 200 μl 1× Wash Buffer. • 5. […] Read on Sector Imager. TAK1 Biochemical Assay

Compound	IC50 (TAK1-TAB1 fusion protein) [nM]	IC50 (pJNK in HCT-116 cells) [nM]	IC50 (p-p38 in HCT-116 cells) [nM]
Nc1ncc(-c2cnn(C3CCNCC3)c2)c2cc(-c3ccc4[nH]ncc4c3)oc12 [Example 18, 2-(1H-indazol-5-yl)-4-[1-(piperidin-4-yl)-1H-pyrazol-4-yl]furo[2,3-c]pyridin-7-amine hydrochloride]	< 100	100 to 1000	100 to 1000
Nc1ncc(-c2cnn(C3CCNCC3)c2)c2cc(-c3cccc4cnccc34)oc12 [Example 33, 2-(isoquinolin-5-yl)-4-[1-(piperidin-4-yl)-1H-pyrazol-4-yl]furo[2,3-c]pyridine-7-amine]	100 to 1000	100 to 1000	100 to 1000
CC(C)n1cc(-c2cnc(N)c3oc(-c4cccc5cnccc45)cc23)cn1 [Example 60, 2-(isoquinolin-5-yl)-4-[1-(propan-2-yl)-1H-pyrazol-4-yl]furo[2,3-c]pyridin-7-amine]	100 to 1000	100 to 1000	100 to 1000
Nc1ncc(-c2cnn([C@H]3CC[C@H](O)CC3)c2)c2cc(-c3cccc4cnccc34)oc12 [Example 65, trans-4-{4-[7-amino-2-(isoquinolin-5-yl)furo[2,3-c]pyridin-4-yl]-1H-pyrazol-1-yl}cyclohexanol]	100 to 1000	< 100	100 to 1000
COCCN1CCC(n2cc(-c3cnc(N)c4oc(-c5cccc6cnccc56)cc34)cn2)CC1 [Example 68, 2-(isoquinolin-5-yl)-4-{1-[1-(2-methoxyethyl)piperidin-4-yl]-1H-pyrazol-4-yl}furo[2,3-c]pyridin-7-amine]	100 to 1000	100 to 1000	100 to 1000
Nc1ncc(-c2cn[nH]c2)c2cc(-c3cccc4cnccc34)oc12 [Example 69, 2-(isoquinolin-5-yl)-4-(1H-pyrazol-4-yl)furo[2,3-c]pyridin-7-amine]	1000 to 10000	100 to 1000	100 to 1000
Cn1cc(-c2cnc(N)c3oc(-c4cccc5cnccc45)cc23)cn1 [Example 70, 2-(isoquinolin-5-yl)-4-(1-methyl-1H-pyrazol-4-yl)furo[2,3-c]pyridin-7-amine]	1000 to 10000	100 to 1000	100 to 1000
C[C@]1(O)CC[C@@H](n2cc(-c3cnc(N)c4oc(-c5cccc6cnccc56)cc34)cn2)CC1 [Example 76, cis-4-{4-[7-amino-2-(isoquinolin-5-yl)furo[2,3-c]pyridin-4-yl]-1H-pyrazol-1-yl}-1-methylcyclohexanol]	100 to 1000	100 to 1000	100 to 1000
CC(C)N1CCC(n2cc(-c3cnc(N)c4oc(-c5cccc6cnccc56)cc34)cn2)CC1 [Example 79, 2-(isoquinolin-5-yl)-4-{1-[1-(propan-2-yl)piperidin-4-yl]-1H-pyrazol-4-yl]furo[2,3-c]pyridin-7-amine]	100 to 1000	100 to 1000	100 to 1000
Cc1sc2cnccc2c1-c1cc2c(-c3cnn([C@H]4CC[C@H](O)CC4)c3)cnc(N)c2o1 [Example 252, trans-4-{4-[7-amino-2-(2-methylthieno[2,3-c]pyridin-3-yl)furo[2,3-c]pyridin-4-yl]-1H-pyrazol-1-yl}cyclohexanol trifluoroacetate]	100 to 1000		100 to 1000

Now from value to compound:

IC50 (TAK1-TAB1 fusion protein) [nM]	IC50 (pJNK in HCT-116 cells) [nM]	IC50 (p-p38 in HCT-116 cells) [nM]	Compound
100 to 1000	1000 to 10000	1000 to 10000	Nc1ncc(-c2cnn(C3CCNCC3)c2)c2cc(-c3ccc4[nH]ccc4c3)oc12 [Example 38, 2-(1H-indol-5-yl)-4-[1-(piperidin-4-yl)-1H-pyrazol-4-yl]furo[2,3-c]pyridin-7-amine]
100 to 1000	100 to 1000	100 to 1000	COCC(=O)N1CCC(n2cc(-c3cnc(N)c4oc(-c5cccc6cnccc56)cc34)cn2)CC1 [Example 50, 1-(4-{4-[7-amino-2-(isoquinolin-5-yl)furo[2,3-c]pyridin-4-yl]-1H-pyrazol-1-yl}piperidin-1-yl)-2-methoxyethanone]
100 to 1000	< 100	< 100	CC(C)C(=O)N1CCC(n2cc(-c3cnc(N)c4oc(-c5cccc6cnccc56)cc34)cn2)CC1 [Example 51, 1-(4-{4-[7-amino-2-(isoquinolin-5-yl)furo[2,3-c]pyridin-4-yl]-1H-pyrazol-1-yl}piperidin-1-yl)-2-methylpropan-1-one]
100 to 1000	100 to 1000	100 to 1000	Nc1ncc(-c2cnn(C3CCN(C(=O)C4CC4)CC3)c2)c2cc(-c3cccc4cnccc34)oc12 [Example 52, (4-{4-[7-amino-2-(isoquinolin-5-yl)furo[2,3-c]pyridin-4-yl]-1H-pyrazol-1-yl}piperidin-1-yl)(cyclopropyl)methanone]
100 to 1000	< 100	100 to 1000	Nc1ncc(-c2cnn(C3CCN(C(=O)C4CCC4)CC3)c2)c2cc(-c3cccc4cnccc34)oc12 [Example 53, (4-{4-[7-amino-2-(isoquinolin-5-yl)furo[2,3-c]pyridin-4-yl]-1H-pyrazol-1-yl}piperidin-1-yl)(cyclobutyl)methanone]
< 100	> 10000	> 10000	Nc1ncc(-c2cnn(C3CCNCC3)c2)c2cc(-c3ccc4[nH][nH]c(=O)c4c3)oc12 [Example 55, 5-{7-amino-4-[1-(piperidin-4-yl)-1H-pyrazol-4-yl]furo[2,3-c]pyridin-2-yl}-1,2-dihydro-3H-indazol-3-one trifluoroacetic acid salt]
100 to 1000	100 to 1000	1000 to 10000	Nc1ncc(-c2cnn(C3CCOCC3)c2)c2cc(-c3cccc4cnccc34)oc12 [Example 74, 2-(isoquinolin-5-yl)-4-[1-(tetrahydro-2H-pyran-4-yl)-1H-pyrazol-4-yl]furo[2,3-c]pyridin-7-amine]
100 to 1000	< 100	100 to 1000	CN1CCC(n2cc(-c3cnc(N)c4oc(-c5cccc6cnccc56)cc34)cn2)CC1 [Example 77, 2-(isoquinolin-5-yl)-4-[1-(1-methylpiperidin-4-yl)-1H-pyrazol-4-yl]furo[2,3-c]pyridin-7-amine]
100 to 1000	100 to 1000	100 to 1000	CCN1CCC(n2cc(-c3cnc(N)c4oc(-c5cccc6cnccc56)cc34)cn2)CC1 [Example 78, 4-[1-(1-ethylpiperidin-4-yl)-1H-pyrazol-4-yl]-2-(isoquinolin-5-yl)furo[2,3-c]pyridin-7-amine]
